Test results reported in US11998546B2, “Pharmaceutical combinations comprising a histone deacetylase inhibitor and epothilone and methods of use thereof” (ACETYLON PHARMACEUTICALS, INC., priority 2016, dated 2024).

Key:
TOV-21G cells [1] = assay: Cell proliferation of TOV-21G cells, crystal violet staining; type: cell-based; details: seven days, Compound B (2 μM) and/or epothilone B (4 nM)
Experimental: The cells were then stained with crystal violet (hexamethyl pararosaniline chloride) dye. The crystal violet dye was extracted in 10% v/v acetic acid, and absorbance was measured in triplicate at a wavelength of 540 nm on a spectrophotometer (FIG. 2B).

TOV-21G cells [2] = assay: Multipolar spindle formation in TOV-21G cells (DAPI, NuMA, α-tubulin staining); type: cell-based; details: 24 hours, 2 μM Compound B combined with 0.5 nM epothilone B vs single agents
Experimental: The cells were then stained with DAPI (to label DNA) and antibodies for α-tubulin and the spindle pole marker NuMA.
Cells in mitosis were then manually counted and scored for the presence of normal bipolar spindles or abnormal multipolar spindles. The frequency of cells with multipolar spindles was determined and scored in at least 100 cells from each treatment condition.

In the case of `O=C(CCCCCCNC(=O)c1cnc(N(c2ccccc2)c2ccccc2Cl)nc1)NO` [Compound B, 2-((2-chlorophenyl)(phenyl)amino)-N-(7-(hydroxyamino)-7-oxoheptyl)pyrimidine-5-carboxamide], the “inhibition of tumor cell proliferation (crystal violet absorbance at 540 nm)” value (TOV-21G cells [1]) is reported as “inhibition of tumor cell proliferation by Epotholine B was enhanced” and the “frequency of cells with multipolar mitotic spindles” value (TOV-21G cells [2]) is reported as “enhanced the multipolar spindle formation induced by epothilone”.
